In brackets after ≈: the same amount, converted by molar mass.
Columns and labels:
Format in all cases: cell-based
[1] = tested on: E. coli strain MCH164pMAL-marAB; test: MIC complementation test, MCH164pMAL-marAB; settings: Escherichia coli, MCH164PMALMARAB
[2] = tested on: E. coli strain MCH164pMAK-Region II; test: MIC complementation test, MCH164pMAK-Region II; settings: Escherichia coli
[3] = tested on: E. coli strain MCH164pMAL-marB; test: MIC complementation test, MCH164pMAL-marB; settings: Escherichia coli, MCH164PMALMARB
[4] = tested on: E. coli strain MCH164pMAL-marA; test: MIC complementation test, MCH164pMAL-marA; settings: Escherichia coli, MCH164PMALMARA
[5] = tested on: E. coli strain AG102 (Mar mutant); test: MIC complementation test, AG102 (Mar mutant); settings: Escherichia coli
[6] = tested on: E. coli strain MCH164PHH193-SEQ ID NO:1; test: MIC complementation test, MCH164PHH193-SEQ ID NO:1; settings: Escherichia coli

How did the MIC [1] turn out when `CN(C)[C@@H]1C(O)=C(C(N)=O)C(=O)[C@@]2(O)C(O)=C3C(=O)c4c(O)cccc4[C@@](C)(O)[C@H]3C[C@@H]12` [Tet, tetracycline] was run?
The MIC was 4.7 µg/mL (≈ 10.6 µM).

And the MIC [2]?
The MIC was 4.7 µg/mL (≈ 10.6 µM).

And the MIC [3]?
Its MIC is 2.1 µg/mL (≈ 4.73 µM).

And the MIC [4]?
Its MIC is 3.4 µg/mL (≈ 7.65 µM).

And the MIC [5]?
Its MIC is 13.8 µg/mL (≈ 31.1 µM).

What about the MIC [6] of the same compound?
The MIC was 13.1 µg/mL (≈ 29.5 µM).

Which results are given for `CCn1cc(C(=O)O)c(=O)c2ccc(C)nc21` [nal, nalidixic acid]?
MIC [1]: 6.3 µg/mL (≈ 27.1 µM); MIC [2]: 6.8 µg/mL (≈ 29.3 µM); MIC [3]: 2.1 µg/mL (≈ 9.04 µM); MIC [4]: 5.3 µg/mL (≈ 22.8 µM); MIC [5]: 14.5 µg/mL (≈ 62.4 µM); MIC [6]: 13.6 µg/mL (≈ 58.6 µM)

`O=C(N[C@H](CO)[C@H](O)c1ccc([N+](=O)[O-])cc1)C(Cl)Cl` [clm, chloramphenicol] was tested. Which MIC [1] did it give?
The MIC was 7.2 µg/mL (≈ 22.3 µM).

And the MIC [3]?
The MIC was 1 µg/mL (≈ 3.09 µM).

What about the MIC [4] of the same compound?
Its MIC is 4.9 µg/mL (≈ 15.2 µM).

What about the MIC [5] of the same compound?
The MIC was greater than 25 µg/mL.

Source: patent publication US6391545B1 (priority 1992, dated 2002)
